We go through two compounds from patent publication US20040171688A1, “Carboxylic acids and derivatives thereof and pharmaceutical compositions containing them” (priority 1997, published 2004).

This test deals with T1, HNF-4α (Rattus norvegicus, UniProt P22449).
T1 sequence (P22449 1-464 isoform P22449-2): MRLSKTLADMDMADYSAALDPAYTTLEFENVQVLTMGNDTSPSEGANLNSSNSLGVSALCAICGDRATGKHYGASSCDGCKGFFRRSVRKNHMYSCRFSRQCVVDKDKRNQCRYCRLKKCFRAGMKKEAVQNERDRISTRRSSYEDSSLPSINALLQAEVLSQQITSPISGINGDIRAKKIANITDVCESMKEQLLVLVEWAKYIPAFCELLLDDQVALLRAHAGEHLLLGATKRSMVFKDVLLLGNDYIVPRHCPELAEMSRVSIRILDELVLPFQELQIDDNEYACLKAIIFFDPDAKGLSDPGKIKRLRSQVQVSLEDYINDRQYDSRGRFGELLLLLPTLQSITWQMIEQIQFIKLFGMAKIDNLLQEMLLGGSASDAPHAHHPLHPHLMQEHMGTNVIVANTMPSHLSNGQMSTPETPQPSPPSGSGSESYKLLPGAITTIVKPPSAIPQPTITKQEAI
Put plainly: Gel mobility shift assay: His-HNF-4α binding to C3P apo CIII promoter oligonucleotide. It is filed as biochemical. On the set-up: The full length HNF-4α1 cDNA cloned into 6His-pET11d vector was expressed in E.coli BL21 (DE3)plysS; 6His; made in house; host or cells: E. coli BL21 (DE3)plysS. Conditions: for effect on His-HNF-4α binding to C3P oligonucleotide: gel mobility shift, 10 μM acyl-CoA (FIG. 2). The protocol:
a. His-HNF-4I (14 ng) binding to C3P in the absence (lane 1) or presence of 10 μM each of myristoyl(14:0)-CoA (lane 2) or palmitoyl(16:0)-CoA (lane 3).
b. His-HNF-4I (20 ng) binding to C3P in the absence (lane 1) or presence of 10 μM each of stearoyl(18:0)-CoA (lane 2) or linolenoyl(18:3, w-3)-CoA (lane 3).
c. Activation of His-HNF-4I (14 ng) binding to C3P by increasing concentrations of myristoyl(14:0)-CoA. The gel section containing radiolabeled C3P bound to His-HNF-4I dimer is shown.
His-HNF-4α and acyl-CoA (as indicated) were preincubated for 30 min at 22° C. in 11 mM Hepes (pH 7.9) containing 50 mM KCl, 1 mM dithiothreitol. 2.5 mM MgCl2, 10% glycerol, 1 μg of poly(dI-dC) in a final volume of 20 μl. ^32P-labeled oligonucleotide (0.1 ng) consisting of the human C3P apo CIII promoter sequence,(−87/−66)^6 was then added, and incubation was continued for an additional 15 min. Protein-DNA complexes were resolved by 5% nondenaturing polyacrylamide gel in 0.6×TBE and quantitated by PhosphorImager analysis.
HNF-4α activity as a function of binding of long chain acyl-CoAs was evaluated by studying the binding of HNF-4α to its cognate C3P element of the apo CIII promoter sequence (−87/−66)^6 in the presence or absence of added acyl-CoAs of variable chain length, degree of saturation, and degree of substitution. Binding was verified by using a gel mobility shift assay. […] Activation was concentration dependent and maximal in the presence of myristoyl(14:0)-CoA added within a concentration range required for its binding to HNF-4α.

Entries after “also recorded” stand apart in the source; their conditions may differ.

As to `CCCCCCCCCCCCCCCCCC(=O)SCCNC(=O)CCNC(=O)[C@H](O)C(C)(C)COP(=O)(O)OP(=O)(O)OC[C@H]1O[C@@H](n2cnc3c(N)ncnc32)[C@H](O)[C@@H]1OP(=O)(O)O` [Stearoyl(18:0)-CoA], the “effect on His-HNF-4α binding to C3P oligonucleotide” value was “potent inhibition”. Besides, where the note is “summary statement of Example 4”, the “direct effect on HNF-4α (summary)” value is given as “antagonistic effect”.

For the compound `CCCCCCCCCCCCCC(=O)SCCNC(=O)CCNC(=O)[C@H](O)C(C)(C)COP(=O)(O)OP(=O)(O)OC[C@H]1O[C@@H](n2cnc3c(N)ncnc32)[C@H](O)[C@@H]1OP(=O)(O)O` [myristoyl(14:0)-CoA, reference compound], the “effect on His-HNF-4α binding to C3P oligonucleotide” value is on record as “Activation; also recorded: maximal”.
